melting point | Structure (SMILES)
144 to 153 °C | CCC1(CC)c2cc(Br)ccc2-c2ccc(Br)cc21
215 to 217 °C | O=C1COc2ccc(C3=Nc4ccccc4SC3c3ccccc3)cc2N1 (configuration not stated)
206 to 210 °C | COc1ccccc1C=CC(=O)C(CC=Cc1ccccc1Cl)(CCC(=O)O)c1ccccc1 (configuration not stated)
140 °C | CN1CN(C(=O)c2c(F)cccc2F)C(=O)N(c2ccc(Cl)cc2)C1
248 to 251 °C | O=C(NCc1cc(Cl)cc(Cl)c1)c1ccnc(NC(=O)c2ccccc2)c1
202 to 204 °C | COC(=O)c1sc2ccc(NC=O)cc2c1N
221 to 224 °C | O=C1Nc2cccc(-c3cnc4ccccc4c3)c2C12COc1cc3c(cc12)OCCO3 (configuration not stated)
213 to 216 °C | Cc1nc2c(N)nc3c(c2n1CCCCS(C)(=O)=O)CCCC3
215 to 217 °C | CC1(C)CC2(CC(C)(C)c3ccc(O)cc32)c2cc(O)ccc21
228 to 231 °C | Cn1c(C#N)ccc1-c1cc(F)c2c(c1)C1(CC1)C(=O)N2
168 °C | NC(=O)C(=O)NC(C(=O)OC(c1ccccc1)c1ccccc1)c1ccccc1 (configuration not stated)
166 to 167 °C | c1ccc2c(c1)nc(-c1ccc3c(c1)OCO3)n2Cc1ccncc1
205 to 207 °C | COc1ccc(-c2csc(Nc3cnccn3)n2)cc1OC
214 to 217 °C | CC(C)Cn1c(C(C)(C)O)nc2c(N)nc3ccccc3c21
232 to 234 °C | CC(C)(C)c1c[nH]c(S)n1
92 to 94 °C | COc1c(F)cc(Br)c(C(=O)O)c1F
179 to 180 °C | O=C(O)[C@@H]1CC2(CN1C(=O)OCc1ccccc1)OCCO2
205 to 207 °C | CN(Cc1ccc(NC(=O)C2=Cc3cc(OCc4ccccc4Cl)ccc3S(=O)(=O)CC2)cc1)C1CCOCC1
47 to 49 °C | Cc1cc(C)cc(OCC(O)CO)c1 (configuration not stated)
116 °C | CC1CCN(c2ccc([N+](=O)[O-])cc2C(=O)c2ccc(Cl)c(Cl)c2)CC1
162 to 166 °C | CC(=NNc1ccc(C2=NNC(=O)CC2C)cc1)c1cc(O)cc(O)c1 (configuration not stated)
208 to 211 °C | Cc1ccc(Sc2cncc3sc(C(=O)Nc4ccc(Cl)cc4)cc23)cc1
84 to 85.6 °C | c1ccc(SCC2=NCCN2)cc1
183 to 184 °C | O=C1CCCc2c1c1cccc(F)c1n2Cc1ccccc1

melting point | Structure (SMILES)
59 to 60 °C | Oc1cc2cc(C3CCCCC3)sc2c(Cl)c1Cl
101 to 106 °C | CN(SSN(C)S(=O)(=O)c1ccccc1)S(=O)(=O)c1ccccc1
169 to 170 °C | O=c1c(-c2ccccc2)c(SCc2ccncc2)oc2cc(OCc3ccccc3)ccc12
86 to 88 °C | COc1ccc(C(C)(C)C(=O)O)cc1
118 to 120 °C | CNc1nc2ccc(CCc3ccccn3)cc2s1
117 °C | CN(C)c1ccc(C(O)C#Cc2ccncc2)cc1 (configuration not stated)
169 to 171 °C | CCC1c2ccccc2-c2sccc2N1S(=O)(=O)c1ccc(O)cc1 (configuration not stated)
194 to 196 °C | O=C(CI)Nc1ccc(C(=O)O)cc1
180 to 182 °C | CCOC(=O)c1c(Cl)[nH]c(=O)c(I)c1Oc1cc(C)cc(C)c1
266 to 267 °C | NC1CCN(c2nc3c(cc2F)c(=O)c(C(=O)O)cn3C2CC2)C1 (configuration not stated)
274 to 276 °C | CCCc1nc2c(N)nc3cc(-c4ccccc4C(N)=O)ccc3c2s1
222 to 228 °C | COc1ccc(C(=O)Nc2ccccc2)cc1NS(=O)(=O)c1cc(Cl)cc(Cl)c1
80 to 82 °C | CC(C)(C)OC(=O)NCC(=O)Nc1ccccc1OCc1ccccc1
158 to 160 °C | O=CNNc1ccc(NC(=S)NC2CCCCC2)cc1
208 °C | COC(=O)c1cc2cc(C=O)ccc2[nH]1
261 to 263 °C | O=Cc1cc(O)cc2cc(-c3ccc(O)cc3)oc12
178 to 180 °C | COC(=O)CCCCCCCCOC1OC(CO)C(O)C(O)C1NC(C)=O (configuration not stated)
165 to 167 °C | COC(=O)c1ccc2sc(/C=C/c3cccc(N)c3)nc2c1
124 to 126 °C | C=C(C1=C(CCC(=O)O)C(O)CC1O)c1ccccc1 (configuration not stated)
194 to 196 °C | CCCCOCCOc1ccc(-c2ccc3c(c2)C=C(C(=O)Nc2ccc(CN(C)C4CCOCC4)cc2)CCS3(=O)=O)cc1
275 to 280 °C | COc1cc2cc3c(Nc4ccc(Sc5nccn5C)c(Cl)c4)c(C#N)cnc3cc2cc1OCCCl
51 to 52 °C | CCCCCc1sc(C(=O)OCC)nc1-c1ccccc1
88.5 to 89.5 °C | CCC(Cc1ccc(OC)c(OCCc2ccccc2)c1)NC(=O)OC(C)(C)C (configuration not stated)
132 to 134 °C | O=C(O)c1ccc(NCc2cc(Br)ccc2CCc2ccccc2)cc1

melting point | Structure (SMILES)
221 to 223 °C | CN1CCN(Cc2ccc(NC(=O)n3ccc4cc(Oc5cc(CC(N)=O)ncn5)ccc43)cc2C(F)(F)F)CC1
132 to 134 °C | CCOC(=O)c1cnc2c(C)csc2c1Nc1ccccc1C
134 to 136 °C | O=C1OCc2c1cccc2[N+](=O)[O-]
198 °C | S=C(NCc1ccccc1)Nc1ccc(NC(=S)NCc2ccccc2)cc1
172 to 173 °C | CN1Cc2cccnc2N(c2ccccc2)C1=O
225 to 228 °C | Cc1cc(C2C(=O)Oc3c2cc(C(C)(C)C)cc3C(C)(C)C)cc(C)c1O (configuration not stated)
203 to 205 °C | CCOc1c(Nc2cc(C3C(C(=O)OC)=C(C)NC(C)=C3C(=O)OC)ccc2F)c(=O)c1=O
213 to 215 °C | N#Cc1ccc(N2CCN(Cc3cnc4c(c3)NC(=O)[C@@H]3CCCN43)CC2)c(Cl)c1
140 to 141 °C | CCCCc1oc2ccccc2c1C(=O)NCc1ccc2c(Br)c(OCC(=O)OC)ccc2c1
80 to 85 °C | N#Cc1ccc(Nc2nc(Cc3c(Cl)cccc3Cl)cc(NCCN3CCCC3)n2)cc1
29 to 31 °C | CN(C)CCCN=Cc1ccc2ccccc2c1
> 250 °C | Cc1c(C(=O)O)nc2c(=O)[nH]c3ccc(-n4ccnc4)cc3n12
119 to 121 °C | O=C1NC(=O)C(Cc2ccc(C(=O)CCc3ccccc3)cc2)S1 (configuration not stated)
70 to 72 °C | O=C(CC(=O)C1CC1)c1ccc(S(F)(F)(F)(F)F)cc1
82 to 82.5 °C | COc1cc(C=O)c2c(c1OC)OCC=C2
147 to 149 °C | CNC(=O)[C@@H]1C[C@H](OS(=O)(=O)c2ccc(C)cc2)CN1S(=O)(=O)c1ccc(C)cc1
199 °C | O=C1CNC(=O)N1c1cc(Cl)cc(Cl)c1
76 °C | Nc1cccc2c1C1CC3(CCN1C2=O)OCCO3 (configuration not stated)
53 to 55 °C | C=CCCCCCCCCNC(=O)NOCc1ccccc1
135 °C | CC(=O)OCC1=C(C(=O)OCOC(=O)C(C)(C)C)N2C(=O)C(NC(=O)Cc3csc(=O)s3)C2SC1 (configuration not stated)
192 to 193 °C | OCc1nn(C(c2ccccc2)(c2ccccc2)c2ccccc2)c2ccccc12
116 to 117 °C | Brc1ccc(OC2CN(C(c3ccccc3)c3ccccc3)C2)cc1
152 to 155 °C | Fc1ccc(Cn2cnc3c(-c4ccco4)nc(Cl)nc32)cc1
160 to 162 °C | CN(CCc1ccc(Nc2ncc3c(n2)-c2ccccc2[C@H](c2ccc(F)cc2)C3)cc1)C1CCCCC1

melting point | Structure (SMILES)
127 to 128 °C | Nc1nn(-c2ccccc2)cc1CO
104 °C | CCC(C)N(C)C(=O)c1cc2sccc2c(-c2ccccc2)n1 (configuration not stated)
214 to 216 °C | CCCCn1c(=O)c2c(NC)n[nH]c2n(CCOCc2ccccc2)c1=O
150 to 152 °C | O=[N+]([O-])c1cnn2c1-c1ccccc1NC2C1CCCCC1 (configuration not stated)
79 to 82 °C | CCOC(=O)c1cc(C)nc(NN=C(C)C)c1
138 to 139 °C | N#CCc1cccc(C(=O)c2ccccc2)c1N
188 to 189 °C | COc1ccc2c(c1)Oc1cscc1C(N1CCN(C)CC1)=N2
119 to 121 °C | CS(=O)(=O)c1ccc(Oc2ccc(Cl)c(Cl)c2)c(N)c1
134 °C | CNC(=S)NS(=O)(=O)c1cc(CCNC(=O)c2cc(Cl)ccc2OC)ccc1OCCOC
77 to 80 °C | CCC12CCC3=C(CCc4cc(OC)ccc43)C1=CCC2=O (configuration not stated)
91 to 93 °C | C#CCOc1ccc(CCN(OS(C)(=O)=O)C(=O)Cc2ccc(Cl)cc2)cc1OC
59 to 61 °C | C1=COc2ccccc2O1
82 to 85 °C | CC(C)(C)OC(=O)COc1cc(NC(=O)OC(C)(C)C)c(NC(=O)CC(=O)c2cccc(-n3ccnc3)c2)cc1-c1ccc(F)cc1
178 °C | CCOC(=O)C(=O)Nc1c([N+](=O)[O-])cc(C#N)c2ccccc12
54 to 55 °C | CC(=S)c1ccc(Cc2ccc(C(C)=S)cc2)cc1
> 250 °C | COc1ccc2c(c1)nc(O)c1nncn12
163 to 164 °C | CNS(=O)(=O)c1ccccc1Nc1nc(Nc2ccc3c(c2)COCCN3C)ncc1Cl
175 to 183 °C | O=[N+]([O-])c1cccc(-c2cc3ncnc(Nc4ccc5[nH]ccc5c4)c3s2)c1
225 to 226 °C | Cc1ccc(-c2nn3cccnc3c2CC(N)=O)cc1
112 to 114 °C | Cc1ccc(-n2cccc2-c2ccc(S(C)(=O)=O)cc2)cc1
157 to 159 °C | CC1(C)OCC(=CCn2cnc3c(Cl)nc(N)nc32)CO1
137 to 139 °C | Nc1cc2c(cc1[N+](=O)[O-])CCCCC2
243 to 245 °C | COCCOc1ccc(/C=C/C(=O)O)c(NC(=O)c2ccc(Cl)cc2Cl)c1

Structure (SMILES) | melting point
CN1CCC(O)(c2cccc(Cl)c2F)C1 (single isomer, unassigned; (+)) | 123 to 125 °C
Cn1ccc2cc(NC(=O)c3cc4cc(F)ccc4n3Cc3cccc(F)c3)ccc21 | 187 to 189 °C
Cc1nc(C=Cc2nc3ccc(F)cc3c(=O)n2-c2ccccc2Cl)cs1 | 231 to 232 °C
CC(C)N1Cc2ccc(F)cc2N(CCN2CC=C(c3c[nH]c4cc(F)ccc34)CC2)S1(=O)=O | 101 to 103 °C
CC12CC(=O)C3C(CCC4CC=CCC43C)C1CCC2=O (configuration not stated) | 188 to 192 °C
Cc1nnc([C@H](Nc2ccc(C#N)c(Cl)c2C)[C@H](C)O)o1 | 181 to 183 °C
CCOC(=O)c1ncn2c1CN=C(c1ccccc1F)c1cc(I)ccc1-2 | 200 to 202 °C

— a melting point compilation (Tetko et al.; mined from patent text by program, amines drawn as free bases though some values may be those of a salt)
